Results from ChEMBL document CHEMBL1149496, “Dissecting the determinants of cyclin-dependent kinase 2 and cyclin-dependent kinase 4 inhibitor selectivity” (J Med Chem, 2006).

Biological target: Cyclin-dependent kinase 4 (Homo sapiens, UniProt P11802)
Assay: Inhibition of CDK4

Chain of Cyclin-dependent kinase 4 (P11802 whole entry): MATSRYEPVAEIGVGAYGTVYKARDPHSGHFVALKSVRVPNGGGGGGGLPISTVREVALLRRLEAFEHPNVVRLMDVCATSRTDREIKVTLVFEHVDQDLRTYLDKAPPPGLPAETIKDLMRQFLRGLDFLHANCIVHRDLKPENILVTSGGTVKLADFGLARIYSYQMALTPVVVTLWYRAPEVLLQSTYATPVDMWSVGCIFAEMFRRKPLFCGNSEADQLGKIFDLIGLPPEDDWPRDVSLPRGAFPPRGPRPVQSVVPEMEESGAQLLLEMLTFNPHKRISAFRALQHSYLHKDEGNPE

IC50: 47 nM
Compound: Cc1ccc(Cl)c(N(CC#N)c2cc(Nc3ccc(OC[C@@H](O)CN(C)C)cc3)ncn2)c1
